# Reference: patent US8697730B2, “5-lipoxygenase activating protein (FLAP) inhibitor” (Panmira Pharmaceuticals, LLC, priority 2007, dated 2014)
# Where two headings read alike, the source gives them in different places.
# Assays:
# pH solubility profile = assay type: physicochemical; settings: 25 °C, thermodynamic from solid
# [1] = Regional dosing study in rat; design: species or system Male Sprague-Dawley rats; settings: in vivo
# [2] = tested on: whole blood ionophore-stimulated leukotriene LTB4; test: Phase 1 study, whole blood ionophore-stimulated LTB4; assay type: in vivo, human
# Protocol: (§1) Pharmacodynamics: Whole blood ionophore-stimulated leukotriene LTB4 and urinary LTE4 production are assayed by ELISA and mass spectrometry, respectively.
# (§2) Obtain pre-dose fasting blood samples for hematology determinations. Obtain pre-dose fasting blood samples for serum chemistry determinations. Obtain pre-dose blood samples (5 mL EDTA and 4 mL heparinized) for baseline PK and LTB4. Collect ‘spot’ urine prior to study drug administration for baseline (pre-dose) LTE4. Administer study drug. […] Collect blood samples (2 mL heparinized) for LTB4 at 0.5, 1, 2, 3, 4, 6, 8, and 12 hours. Collect urine for LTE4 for the following separate intervals: 0-3, 3-6, 6-9, and 9-12 hours. For twice daily dosing group (if conducted): administer study drug 12 hours±30 minutes after prior dose, preceded by ≧2 hours fast.
# (§3) Obtain pre-dose fasting blood samples for hematology determinations. Obtain pre-dose fasting blood samples for serum chemistry determinations. […] Collect blood samples (2 mL heparinized) for LTB4 at 24 hours after the first study drug administration; 4 mL blood will be collected at this time point in the Single Dose Phase. Collect ‘spot’ urine sample for LTE4 at 24 and 36 hours after first study drug administration.
# (§4) Obtain pre-dose blood samples (5 mL EDTA and 2 mL heparinized) for PK and LTB4. Collect pre-dose urine for LTE4. Administer study drug (last dose of drug). […] Collect blood samples (2 mL heparinized) for LTB4 at 0.5, 1, 2, 3, 4, 6, 8, and 12 hours. Collect urine for LTE4 for the following separate intervals: 0-3, 3-6, 6-9, and 9-12 hours after study drug administration.
# (§5) Record vital signs 24 hours after Day 11 study drug administration. […] Collect blood sample (4 mL heparinized) for LTB4 at 24 hours after Day 11 study drug administration. Collect ‘spot’ urine sample for LTE4 at 24 hours after Day 11 study drug administration.
# (§6) Whole blood ionophore-stimulated leukotriene LTB4 and urinary LTE4 production were assayed by ELISA and mass spectrometry, respectively.
# urinary LTE4 production = test: Phase 1 study, urinary LTE4; assay type: in vivo, human
# Protocol: as §1, §2, §3, §4, §5, §6
# [3] = in vivo, po, 250 mg/kg
# Protocol: Twenty-four hours following the final administration mice were placed into an enclosed Plexiglas chamber and exposed to CO2 for a period of 1-2 minutes or until breathing ceased. They were then removed and blood was taken via a cardiac puncture and cervical dislocation was performed. Subjects were next placed in a supine position and a midline incision made. All organs were inspected and the livers removed by careful dissection. Liver weights were recorded as well as any gross abnormalities.
# in vivo = settings: male, Sprague-Dawley, rat, po
# CYP2C19 = CYP2C19 (Homo sapiens, UniProt P33261); test: biochemical
# [4] = multiple dose, 450 mg daily, Day 1
# [5] = multiple dose, 450 mg daily, Day 11
# [6] = multiple dose, 1000 mg daily, Day 1
# [7] = multiple dose, 1000 mg daily, Day 11
# [8] = single dose 50 mg, oral solution
# [9] = single dose 150 mg, oral solution
# [10] = single dose 300 mg, oral solution
# [11] = single dose 600 mg, oral solution
# [12] = single dose 1000 mg, oral solution
# Sequence of CYP2C19 (P33261 whole entry): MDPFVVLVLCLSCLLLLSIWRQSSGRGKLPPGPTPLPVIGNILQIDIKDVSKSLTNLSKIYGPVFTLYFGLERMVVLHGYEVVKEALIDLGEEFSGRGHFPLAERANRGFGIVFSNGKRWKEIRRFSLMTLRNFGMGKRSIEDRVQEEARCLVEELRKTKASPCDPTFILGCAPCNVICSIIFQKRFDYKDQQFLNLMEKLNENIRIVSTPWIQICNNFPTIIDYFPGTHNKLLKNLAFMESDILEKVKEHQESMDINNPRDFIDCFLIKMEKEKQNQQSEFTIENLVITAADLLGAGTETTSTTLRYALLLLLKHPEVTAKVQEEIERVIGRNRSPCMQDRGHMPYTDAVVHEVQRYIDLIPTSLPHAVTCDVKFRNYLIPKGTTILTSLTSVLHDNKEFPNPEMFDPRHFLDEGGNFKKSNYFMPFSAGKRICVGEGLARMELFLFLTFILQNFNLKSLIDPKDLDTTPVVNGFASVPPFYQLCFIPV
structure (smiles),measurement,setting,value
"COc1ccc(-c2ccc(Cn3c(CC(C)(C)C(=O)O)c(SC(C)(C)C)c4cc(OCc5ccccn5)ccc43)cc2)cn1 [sodium 3-[5-(pyridin-2-ylmethoxy)-3-(2-methyl-2-propylthio)-1-[4-(2-methoxypyridin-5-yl)benzyl]-indol-2-yl]-2,2-dimethyl-propionate]",solubility,"pH solubility profile; aqueous medium, aqueous buffer, about pH 7, read-out: aqueous solubility",< 0.005 mg/mL
same,solubility,"pH solubility profile; basic media, pH 10, aqueous buffer, read-out: solubility in basic media",> 70 mg/mL
same,site of absorption in words,[1],mainly absorbed in the upper gastrointestinal tract
same,LTB4 level at t = 24 hrs. (% of baseline),[2]; [4],24 ± 6.7 % of baseline
same,LTB4 level at t = 24 hrs. (% of baseline),[2]; [5],26 ± 7.4 % of baseline
same,LTB4 level at t = 24 hrs. (% of baseline),[2]; [6],2.7 ± 1.1 % of baseline
same,LTB4 level at t = 24 hrs. (% of baseline),[2]; [7],1.0 ± 0.6 % of baseline
same,LTB4 level at t = 24 hrs. (% of baseline),[2]; [8],75 ± 15 % of baseline
same,LTB4 level at t = 24 hrs. (% of baseline),[2]; [9],58 ± 18 % of baseline
same,LTB4 level at t = 24 hrs. (% of baseline),[2]; [10],36 ± 6.5 % of baseline
same,LTB4 level at t = 24 hrs. (% of baseline),[2]; [11],25 ± 8.7 % of baseline
same,LTB4 level at t = 24 hrs. (% of baseline),[2]; [12],23 ± 12 % of baseline
same,LTE4 level at t = 24 hrs. (% of baseline),urinary LTE4 production; [4],8.2 ± 4.3 % of baseline
same,LTE4 level at t = 24 hrs. (% of baseline),urinary LTE4 production; [5],2.8 ± 0.9 % of baseline
same,LTE4 level at t = 24 hrs. (% of baseline),urinary LTE4 production; [6],2.5 ± 0.6 % of baseline
same,LTE4 level at t = 24 hrs. (% of baseline),urinary LTE4 production; [7],2.3 ± 0.6 % of baseline
same,LTE4 level at t = 24 hrs. (% of baseline),urinary LTE4 production; [8],77 ± 26 % of baseline
same,LTE4 level at t = 24 hrs. (% of baseline),urinary LTE4 production; [9],23 ± 10 % of baseline
same,LTE4 level at t = 24 hrs. (% of baseline),urinary LTE4 production; [10],10 ± 5 % of baseline
same,LTE4 level at t = 24 hrs. (% of baseline),urinary LTE4 production; [11],8 ± 3 % of baseline
same,LTE4 level at t = 24 hrs. (% of baseline),urinary LTE4 production; [12],3 ± 0 % of baseline
same,liver weight alteration,"[3]; female, CD-1, mouse, 4 days",9.1%
same,necropsy findings,[3]; mouse,no gross abnormalities
same,Tmax,in vivo,≥ 2 h
same,IC50,CYP2C19,22 µM
